Measurements from US4340594A, “Fat emulsion containing steroid” (The Green Cross Corporation, priority 1980, dated 1982).

Assays:
dd strain mice = details: mouse, in vivo, iv
in vivo = details: mouse, iv

Row | SMILES | LD50 (dd strain mice) [mg/kg] | LD50 (in vivo) [mg/kg]
1 | CCCCCCCCCCCCCCCC(=O)OCC(=O)[C@@]1(O)[C@H](C)C[C@H]2[C@@H]3CCC4=CC(=O)C=C[C@]4(C)[C@@]3(F)[C@@H](O)C[C@@]21C [dexamethasone palmitate] | 420 | 580
2 | C[C@@H]1C[C@H]2[C@@H]3CCC4=CC(=O)C=C[C@]4(C)[C@@]3(F)[C@@H](O)C[C@]2(C)[C@@]1(O)C(=O)COP(=O)(O)O [dexamethasone phosphate] | 115 | 140
